Key:
Test in all cases: cells
[1] = system: TGW; assay type: functional, cell-based, Homo sapiens; conditions: Homo sapiens, TGW;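 also: growth inhibition of human TGW cells, read out with a cell viability assay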
Description: SANGER: Inhibition of human TGW cell growth in a cell viability assay.

[2] = system: GR-ST; assay type: functional, cell-based, Homo sapiens; conditions: Homo sapiens, GR-ST
Description: SANGER: Inhibition of human GR-ST cell growth in a cell viability assay.

[3] = system: MZ1-PC; assay type: functional, cell-based, Homo sapiens; conditions: Homo sapiens, MZ1-PC;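 also: cell viability assay measuring growth inhibition of human MZ1-PC cells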
Description: SANGER: Inhibition of human MZ1-PC cell growth in a cell viability assay.

[4] = system: NH-12; assay type: functional, cell-based, Homo sapiens; conditions: Homo sapiens, NH-12;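 also: growth inhibition of NH-12 cells, read out with a cell viability assay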
Description: SANGER: Inhibition of human NH-12 cell growth in a cell viability assay.

[5] = system: A101D; assay type: functional, cell-based, Homo sapiens; conditions: Homo sapiens, A101D;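 also: growth inhibition of the cell line, measured with a viability assay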
Description: SANGER: Inhibition of human A101D cell growth in a cell viability assay.

[6] = system: EW-1; assay type: functional, cell-based, Homo sapiens; conditions: Homo sapiens, EW-1;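 also: growth inhibition of the human EW-1 cell line, read out by a cell viability assay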
Description: SANGER: Inhibition of human EW-1 cell growth in a cell viability assay.

[7] = system: SK-NEP-1; assay type: functional, cell-based, Homo sapiens; conditions: Homo sapiens, SK-NEP-1;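 also: growth inhibition of human SK-NEP-1 cells, read out by a cell viability assay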
Description: SANGER: Inhibition of human SK-NEP-1 cell growth in a cell viability assay.

[8] = system: NB69; assay type: functional, cell-based, Homo sapiens; conditions: Homo sapiens, NB69;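 also: growth inhibition of NB69 cells, determined by a cell viability assay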
Description: SANGER: Inhibition of human NB69 cell growth in a cell viability assay.

[9] = system: SF-268; assay type: functional, cell-based, Homo sapiens; conditions: Homo sapiens, SF-268;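 also: growth inhibition of SF-268 cells determined with a cell viability assay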
Description: SANGER: Inhibition of human SF268 cell growth in a cell viability assay.

[10] = system: DB; assay type: functional, cell-based, Homo sapiens; conditions: Homo sapiens, DB
Description: SANGER: Inhibition of human DB cell growth in a cell viability assay.

[11] = system: DMS-114; assay type: functional, cell-based, Homo sapiens; conditions: Homo sapiens, DMS-114
[12] = system: NCI-H1581; assay type: functional, cell-based, Homo sapiens; conditions: Homo sapiens, NCI-H1581;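 also: cell growth inhibition read out by a viability assay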
Description: SANGER: Inhibition of human NCI-H1581 cell growth in a cell viability assay.

[13] = system: IST-MES1; assay type: functional, cell-based, Homo sapiens; conditions: Homo sapiens, IST-MES1;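 also: growth inhibition of IST-MES1 cells, measured with a cell viability assay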
Description: SANGER: Inhibition of human IST-MES1 cell growth in a cell viability assay.

[14] = system: OCI-AML2; assay type: functional, cell-based, Homo sapiens; conditions: Homo sapiens, OCI-AML2;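 also: growth inhibition of OCI-AML2 cells, read out with a cell viability assay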
Description: SANGER: Inhibition of human OCI-AML2 cell growth in a cell viability assay.

[15] = system: MOLT-16; assay type: functional, cell-based, Homo sapiens; conditions: Homo sapiens, MOLT-16;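 also: growth inhibition of human MOLT-16 cells, read out with a cell viability assay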
Description: SANGER: Inhibition of human MOLT-16 cell growth in a cell viability assay.

[16] = system: GI-1; assay type: functional, cell-based, Homo sapiens; conditions: Homo sapiens, GI-1;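 also: growth inhibition of human GI-1 cells, measured with a cell viability readout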
Description: SANGER: Inhibition of human GI-1 cell growth in a cell viability assay.

[17] = system: NB6; assay type: functional, cell-based, Homo sapiens; conditions: Homo sapiens, NB6;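 also: growth inhibition of NB6 cells, read out by a cell viability assay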
Description: SANGER: Inhibition of human NB6 cell growth in a cell viability assay.

[18] = system: no-11; assay type: functional, cell-based, Homo sapiens; conditions: Homo sapiens;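 also: growth inhibition of human NO-11 cells, read out with a cell viability assay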
Description: SANGER: Inhibition of human no-11 cell growth in a cell viability assay.

[19] = system: TE-9; assay type: functional, cell-based, Homo sapiens; conditions: Homo sapiens, TE-9;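 also: cell growth inhibition, measured with a cell viability readout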
Description: SANGER: Inhibition of human TE-9 cell growth in a cell viability assay.

[20] = system: KINGS-1; assay type: functional, cell-based, Homo sapiens; conditions: Homo sapiens, KINGS-1;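 also: cell viability assay measuring suppression of KINGS-1 cell growth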
Description: SANGER: Inhibition of human KINGS-1 cell growth in a cell viability assay.

[21] = system: TE-10; assay type: functional, cell-based, Homo sapiens; conditions: Homo sapiens, TE-10;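 also: growth inhibition of TE-10 cells, measured by a cell viability assay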
Description: SANGER: Inhibition of human TE-10 cell growth in a cell viability assay.

[22] = system: ONS-76; assay type: functional, cell-based, Homo sapiens; conditions: Homo sapiens, ONS-76;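 also: growth inhibition of human ONS-76 cells, read out with a cell viability assay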
Description: SANGER: Inhibition of human ONS-76 cell growth in a cell viability assay.

[23] = system: GOTO; assay type: functional, cell-based, Homo sapiens; conditions: Homo sapiens, GOTO;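 also: growth inhibition of GOTO cells, read out by a cell viability assay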
Description: SANGER: Inhibition of human GOTO cell growth in a cell viability assay.

[24] = system: MZ2-MEL; assay type: functional, cell-based, Homo sapiens; conditions: Homo sapiens, MZ2-MEL;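 also: growth inhibition of MZ2-MEL cells read out with a cell viability assay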
Description: SANGER: Inhibition of human MZ2-MEL cell growth in a cell viability assay.

[25] = system: COLO-668; assay type: functional, cell-based, Homo sapiens; conditions: Homo sapiens, COLO-668
Description: SANGER: Inhibition of human COLO-668 cell growth in a cell viability assay.

[26] = system: MSTO-211H; assay type: functional, cell-based, Homo sapiens; conditions: Homo sapiens, MSTO-211H
Description: SANGER: Inhibition of human MSTO-211H cell growth in a cell viability assay.

[27] = system: BV-173; assay type: functional, cell-based, Homo sapiens; conditions: Homo sapiens, BV-173
Description: SANGER: Inhibition of human BV-173 cell growth in a cell viability assay.

[28] = system: NCI-H1838; assay type: functional, cell-based, Homo sapiens; conditions: Homo sapiens, NCI-H1838;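 also: growth inhibition of NCI-H1838 cells, determined with a cell viability readout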
Description: SANGER: Inhibition of human NCI-H1838 cell growth in a cell viability assay.

[29] = system: COLO-800; assay type: functional, cell-based, Homo sapiens; conditions: Homo sapiens, COLO-800;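 also: growth inhibition of COLO-800 cells, read out with a cell viability assay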
Description: SANGER: Inhibition of human COLO-800 cell growth in a cell viability assay.

[30] = system: NTERA-2-cl-D1; assay type: functional, cell-based, Homo sapiens; conditions: Homo sapiens, NTERA-2-cl-D1;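 also: inhibition of cell growth, measured with a cell viability assay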
Description: SANGER: Inhibition of human NTERA-S-cl-D1 cell growth in a cell viability assay.

[31] = system: NMC-G1; assay type: functional, cell-based, Homo sapiens; conditions: Homo sapiens, NMC-G1;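 also: growth inhibition of the NMC-G1 cell line, measured with a cell viability read-out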
Description: SANGER: Inhibition of human NMC-G1 cell growth in a cell viability assay.

[32] = system: RH-1; assay type: functional, cell-based, Homo sapiens; conditions: Homo sapiens, RH-1;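 also: growth inhibition of human RH-1 cells, read out with a cell viability assay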
Description: SANGER: Inhibition of human RH-1 cell growth in a cell viability assay.

[33] = system: CW-2; assay type: functional, cell-based, Homo sapiens; conditions: Homo sapiens, CW-2;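 also: growth inhibition of CW-2 cells, read out by a cell viability assay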
Description: SANGER: Inhibition of human CW-2 cell growth in a cell viability assay.

[34] = system: UACC-257; assay type: functional, cell-based, Homo sapiens; conditions: Homo sapiens, UACC-257
Description: SANGER: Inhibition of human UACC-257 cell growth in a cell viability assay.

[35] = system: CTB-1; assay type: functional, cell-based, Homo sapiens; conditions: Homo sapiens, CTB-1
Description: SANGER: Inhibition of human CTB-1 cell growth in a cell viability assay.

[36] = system: LB2518-MEL; assay type: functional, cell-based; conditions: Homo sapiens;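 also: growth inhibition of human LB2518-MEL cells, measured with a cell viability assay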
Description: SANGER: Inhibition of human LB2518-MEL cell growth in a cell viability assay.

[37] = system: TE-6; assay type: functional, cell-based, Homo sapiens; conditions: Homo sapiens, TE-6;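 also: growth inhibition of TE-6 cells, read out with a cell viability assay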
Description: SANGER: Inhibition of human TE-6 cell growth in a cell viability assay.

[38] = system: ES7; assay type: functional, cell-based, Homo sapiens; conditions: Homo sapiens, ES7;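 also: growth inhibition of cultured human ES7 cells, read out as cell viability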
Description: SANGER: Inhibition of human ES7 cell growth in a cell viability assay.

[39] = system: NOS-1; assay type: functional, cell-based, Homo sapiens; conditions: Homo sapiens, NOS-1;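 also: growth inhibition of the human NOS-1 cell line, read out with a cell viability assay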
Description: SANGER: Inhibition of human NOS-1 cell growth in a cell viability assay.

[40] = system: HT; assay type: functional, cell-based, Homo sapiens; conditions: Homo sapiens, HT
Description: SANGER: Inhibition of human HT cell growth in a cell viability assay.

[41] = system: NCI-H1155; assay type: functional, cell-based, Homo sapiens; conditions: Homo sapiens, NCI-H1155;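 also: cell growth inhibition measured by a viability assay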
Description: SANGER: Inhibition of human NCI-H1155 cell growth in a cell viability assay.

[42] = system: Ramos-2G6-4C10; assay type: functional, cell-based, Homo sapiens; conditions: Homo sapiens, Ramos-2G6-4C10;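 also: growth inhibition of the cell line, measured by a cell viability read-out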
Description: SANGER: Inhibition of human Ramos-2G6-4C10 cell growth in a cell viability assay.

[43] = system: SBC-1; assay type: functional, cell-based, Homo sapiens; conditions: Homo sapiens, SBC-1;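 also: cell viability assay measuring growth inhibition of the SBC-1 cell line, IC50 being the concentration that halves growth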
Description: SANGER: Inhibition of human SBC-1 cell growth in a cell viability assay.

[44] = system: K5; assay type: functional, cell-based, Homo sapiens; conditions: Homo sapiens, K5
Description: SANGER: Inhibition of human K5 cell growth in a cell viability assay.

[45] = system: DOHH-2; assay type: functional, cell-based, Homo sapiens; conditions: Homo sapiens, DOHH-2;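 also: growth inhibition of human DOHH-2 cells, read out with a cell viability assay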
Description: SANGER: Inhibition of human DOHH-2 cell growth in a cell viability assay.

[46] = system: ML-2; assay type: functional, cell-based, Homo sapiens; conditions: Homo sapiens, ML-2;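 also: growth inhibition of ML-2 cells, measured with a cell viability readout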
Description: SANGER: Inhibition of human ML-2 cell growth in a cell viability assay.

[47] = system: COLO-824; assay type: functional, cell-based, Homo sapiens; conditions: Homo sapiens, COLO-824
Description: SANGER: Inhibition of human COLO-824 cell growth in a cell viability assay.

[48] = system: KNS-81-FD; assay type: functional, cell-based, Homo sapiens; conditions: Homo sapiens, KNS-81-FD;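 also: growth inhibition of KNS-81-FD cells, read out with a cell viability assay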
Description: SANGER: Inhibition of human KNS-81-FD cell growth in a cell viability assay.

[49] = system: EM-2; assay type: functional, cell-based, Homo sapiens; conditions: Homo sapiens, EM-2;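 also: growth inhibition of EM-2 cells, read out with a cell viability assay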
Description: SANGER: Inhibition of human EM-2 cell growth in a cell viability assay.

[50] = system: NCI-H1299; assay type: functional, cell-based; conditions: Homo sapiens;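 also: growth inhibition of human NCI-H1299 cells, read out by a cell viability assay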
Description: SANGER: Inhibition of human NCI-H1299 cell growth in a cell viability assay.

Compound `Cc1cc(N2CCOCC2)cc2[nH]c(-c3c(NC[C@@H](O)c4cccc(Cl)c4)cc[nH]c3=O)nc12` has an IC50 [1] of 683 nM, an IC50 [2] of 3270 nM and an IC50 [3] of 764 nM. It also gave an IC50 [4] of over 5120 nM, an IC50 [5] of 1890 nM and an IC50 [6] of 173 nM. For the same compound, the IC50 [7] was over 5120 nM, the IC50 [8] was 293 nM and the IC50 [9] was 3040 nM. It also gave an IC50 [10] of over 5120 nM, an IC50 [11] of over 5120 nM and an IC50 [12] of over 5120 nM. It also gave an IC50 [13] of 1120 nM, an IC50 [14] of 1310 nM and an IC50 [15] of 5.02 µM. For the same compound, the IC50 [16] was 913 nM, the IC50 [17] was over 5120 nM and the IC50 [18] was over 5120 nM. For the same compound, the IC50 [19] was 2500 nM, the IC50 [20] was over 5120 nM and the IC50 [21] was 1200 nM. For the same compound, the IC50 [22] was over 5120 nM, the IC50 [23] was over 5120 nM and the IC50 [24] was 4.8 µM. For the same compound, the IC50 [25] was 1190 nM, the IC50 [26] was over 5120 nM and the IC50 [27] was over 5120 nM. The IC50 [28] was over 5120 nM, the IC50 [29] was over 5120 nM and the IC50 [30] was 257 nM. For the same compound, the IC50 [31] was 4.61 µM, the IC50 [32] was over 5120 nM and the IC50 [33] was over 5120 nM. It also gave an IC50 [34] of over 5120 nM, an IC50 [35] of over 5120 nM and an IC50 [36] of over 5120 nM. It also gave an IC50 [37] of over 5120 nM, an IC50 [38] of over 5120 nM and an IC50 [39] of 74.4 nM. It also gave an IC50 [40] of over 5120 nM, an IC50 [41] of over 5120 nM and an IC50 [42] of over 5120 nM. It also gave an IC50 [43] of over 5120 nM, an IC50 [44] of 1780 nM and an IC50 [45] of over 5120 nM. It also gave an IC50 [46] of 192 nM, an IC50 [47] of over 5120 nM and an IC50 [48] of over 5120 nM. It also gave an IC50 [49] of over 5120 nM.
Work on `NC(=O)c1cccc(-c2cc(Nc3ccc(OC(F)(F)F)cc3)ncn2)c1` yielded an IC50 [1] of over 1280 nM, an IC50 [2] of over 1280 nM and an IC50 [3] of over 1280 nM. For the same compound, the IC50 [4] was over 1280 nM, the IC50 [5] was over 1280 nM and the IC50 [6] was over 1280 nM. The IC50 [7] was over 1280 nM, the IC50 [8] was over 1280 nM and the IC50 [9] was over 1280 nM. The IC50 [10] was over 1280 nM, the IC50 [11] was over 1280 nM and the IC50 [12] was over 1280 nM. For the same compound, the IC50 [13] was over 1280 nM, the IC50 [14] was over 1280 nM and the IC50 [15] was over 1.28 µM. It also gave an IC50 [16] of over 1280 nM, an IC50 [17] of over 1280 nM and an IC50 [18] of over 1280 nM. The IC50 [19] was over 1280 nM, the IC50 [20] was over 1280 nM and the IC50 [21] was over 1280 nM. The IC50 [22] was over 1280 nM, the IC50 [23] was over 1280 nM and the IC50 [24] was over 1.28 µM. It also gave an IC50 [25] of over 1280 nM, an IC50 [26] of over 1280 nM and an IC50 [27] of 286 nM. The IC50 [28] was over 1280 nM, the IC50 [29] was over 1280 nM and the IC50 [30] was over 1280 nM. For the same compound, the IC50 [31] was over 1.28 µM, the IC50 [32] was over 1280 nM and the IC50 [33] was over 1280 nM. It also gave an IC50 [34] of over 1280 nM, an IC50 [35] of over 1280 nM and an IC50 [36] of over 1280 nM. It also gave an IC50 [37] of over 1280 nM, an IC50 [38] of over 1280 nM and an IC50 [39] of 571 nM. For the same compound, the IC50 [40] was over 1280 nM, the IC50 [41] was over 1280 nM and the IC50 [42] was over 1280 nM. The IC50 [43] was 1000 nM, the IC50 [44] was over 1280 nM and the IC50 [45] was over 1280 nM. It also gave an IC50 [46] of over 1280 nM, an IC50 [47] of over 1280 nM and an IC50 [48] of over 1280 nM. It also gave an IC50 [49] of 235 nM.
Compound `NC(=O)c1ccc(N(C(N)=O)c2c(F)cccc2F)nc1-c1ccc(F)cc1F` [VX-702] has an IC50 [2] of over 2000 nM, an IC50 [3] of over 2000 nM and an IC50 [4] of over 2000 nM. For the same compound, the IC50 [5] was over 2000 nM, the IC50 [6] was over 2000 nM and the IC50 [7] was over 2000 nM. The IC50 [8] was over 2000 nM, the IC50 [9] was over 2000 nM and the IC50 [10] was over 2000 nM. The IC50 [11] was over 2000 nM, the IC50 [12] was over 2000 nM and the IC50 [13] was over 2000 nM. For the same compound, the IC50 [14] was over 2000 nM, the IC50 [15] was over 2 µM and the IC50 [16] was over 2000 nM. It also gave an IC50 [17] of over 2000 nM, an IC50 [18] of over 2000 nM and an IC50 [19] of over 2000 nM. It also gave an IC50 [20] of over 2000 nM, an IC50 [21] of over 2000 nM and an IC50 [22] of over 2000 nM. It also gave an IC50 [23] of over 2000 nM, an IC50 [24] of over 2 µM and an IC50 [25] of over 2000 nM. The IC50 [26] was over 2000 nM, the IC50 [27] was 114 nM and the IC50 [28] was over 2000 nM. It also gave an IC50 [29] of over 2000 nM, an IC50 [30] of over 2000 nM and an IC50 [31] of over 2 µM. For the same compound, the IC50 [32] was over 2000 nM, the IC50 [33] was over 2000 nM and the IC50 [34] was 1200 nM. It also gave an IC50 [35] of over 2000 nM, an IC50 [36] of over 2000 nM and an IC50 [37] of over 2000 nM. The IC50 [38] was over 2000 nM, the IC50 [39] was over 2000 nM and the IC50 [40] was over 2000 nM. It also gave an IC50 [41] of over 2000 nM, an IC50 [42] of over 2000 nM and an IC50 [43] of 236 nM. For the same compound, the IC50 [50] was over 2000 nM, the IC50 [44] was 229 nM and the IC50 [45] was over 2000 nM. The IC50 [46] was 227 nM, the IC50 [47] was over 2000 nM and the IC50 [48] was over 2000 nM. It also gave an IC50 [49] of over 2000 nM.

Source: ChEMBL document CHEMBL1201861, “Genomics of Drug Sensitity in Cancer screening data, Wellcome Trust Sanger Institute”
